Laboratory results published in patent US20250177353A1 (priority 2021, published 2025).
Where two headings read alike, the source gives them in different places.

How the values were obtained:
[1] = MAD study: 2,4-dinitrophenol pharmacokinetics (accumulation, steady state); assay type: in vivo, human; settings: MAD cohort 1
Procedure: A double-blind, sponsor-open, placebo-controlled, phase I study of the safety, pharmacokinetics and pharmacodynamics of multiple ascending doses of Compound 1 in high MBI volunteers was conducted. The first cohort of 10 healthy high body mass index (BMI) subjects has completed dosing at 200 mg Compound 1. Two more cohorts are also planned at doses of 400 and 550 mg QD.
With once daily dosing, significant accumulation of 2,4-dinitrophenol is anticipated at steady state.

[2] = cited from earlier work
[3] = human, in vivo, 500 mg
[4] = SAD phase I study: plasma pharmacokinetics of 2,4-dinitrophenol after Compound 1 (Table 3); assay type: in vivo, human; settings: for Vd/F: 500 mg, read-out: Vz/F, Median
Procedure: A double-blind, placebo-controlled, phase I study of the safety and pharmacokinetics of single ascending doses of compound 1 in healthy volunteers was conducted. The volunteers were orally administered Compound 1 in doses ranging from 30 mg once daily (QD) to 1400 mg QD in a total of 67 subjects (50 active/17 placebo) across 8 cohorts.
Screening procedures occurred on Days -28 to -3. For all Cohorts except Cohort 4 (Fed/Fasted), subjects were admitted to the clinical research unit for up to 4 days. […] Following completion of all safety assessments and blood draws for PK analyses, subjects were discharged on Day 3. The Fed/Fasted cohort remained in the unit and were discharged on Day 7.
Double-blind dosing occurred in cohorts 1 through 8. In these cohorts, six subjects received Compound 1 and two received matching placebo. Doses escalated in the following sequence: 30, 100, 200, 500, 1400, 1050 and 600 mg. • Cohort 4 crossed-over to a fed state (50% fat meal) administration after pharmacokinetics and an inpatient washout had occurred for 72 hours after the first dose with a final dose.
Subjects were admitted to the clinical research unit on Day 1. […] Blood draws for assessment of PK parameters occurred per schedule of assessments. IC were taken per schedule of assessments. Subjects were released on Day 3 following completion of all blood draws and safety assessments. The Fed/Fasted cohort remained in the unit and was discharged on Day 7.
Compound 1 or matching placebo was administered orally as a single dose. All subjects except the fed cohort, were dosed in the morning after an 8-hour fast and remained in a semi-reclined position for 1 hour and fasting for 4 hours post-administration. Capsules were swallowed with 240 mL (8 fluid ounces) of room temperature water.
Cohort 4 was a crossover food effect analysis. Subjects enrolled in Cohort 4 were dosed 30 minutes following the beginning of a standardized (consisting of 50% fat) meal (following a 10-hour fast) to evaluate for food effects. The study drug was administered with room temperature 240 mL (8 fluid ounces) of water.

[5] = single dose 30 mg Compound 1, Fasted
[6] = single dose 100 mg Compound 1, Fasted
[7] = single dose 200 mg Compound 1, Fasted
[8] = single dose 500 mg Compound 1, Fasted
[9] = single dose 500 mg Compound 1, Fed
[10] = single dose 600 mg Compound 1, Fasted, Micronized
[11] = single dose 1050 mg Compound 1, Fasted
[12] = single dose 1050 mg Compound 1, Fasted, Micronized
[13] = single dose 1400 mg Compound 1, Fasted, Micronized

In the case of O=[N+]([O-])c1ccc(O)c([N+](=O)[O-])c1 [2,4-dinitrophenol], the dose accumulation factor ([1]; Compound 1 200 mg QD for 14 days) is listed as “approximately 3.5 fold”, the time to steady-state ([1]; Compound 1 200 mg daily dosing) is listed as 7 days and the “increase in RMR” value ([2]; 2,4-dinitrophenol once daily 1-3 months (Tainter, Simkins)) is listed as 20-40%. The weight loss ([2]; 2,4-dinitrophenol once daily 1-3 months) was 1.4-2.1 lbs./week, the tolerability ([2]; 2,4-dinitrophenol once daily over 1-3 months) was “well tolerated” and the “2,4-dinitrophenol concentrations associated with adverse increases in body temperatures” value ([2]; humans (Zhao 2015)) was “greater than 28,000 ng/ml”. For the same compound, the “AUC increase under fed conditions relative to fasted conditions” value [3] was greater than 2.0 fold, the “Cmax increase under fed conditions relative to fasted conditions” value [3] was greater than 1.8 fold and the Vd/F ([4]; human, oral, single dose 500 mg Compound 1, Fasted) was 735 L. It also gave a Vd/F ([4]; human, oral, single dose 500 mg Compound 1, Fed) of 269 L, an AUC(0-inf) ([4]; human, oral, single dose 500 mg Compound 1, Fed, read-out: AUCinf, Median) of 83800 ng·h/mL and a half-life ([4]; human, oral, single dose 500 mg Compound 1, Fed, read-out: t1/2, Median (converted)) of 31.2 h. For the same compound, the “AUC0/24 h, Geometric Mean” value [4, 5] was 1440 ng·h/mL, the “AUC0/24 h, Mean (SD)” value [4, 5] was 1500 (448) h*ng/ML and the “AUC0/24 h, Median” value [4, 5] was 1500 ng·h/mL. The “CL/F, Geometric Mean” value [4, 5] was 7.44 L/h, the “CL/F, Mean (SD)” value [4, 5] was 8.04 (3.39) L/h and the “CL/F, Median” value [4, 5] was 9.84 L/h. The “AUC0/24 h, Geometric Mean” value [4, 6] was 4660 ng·h/mL, the “AUC0/24 h, Mean (SD)” value [4, 6] was 4710 (711) h*ng/ML and the “AUC0/24 h, Median” value [4, 6] was 4820 ng·h/mL. For the same compound, the “CL/F, Geometric Mean” value [4, 6] was 7.61 L/h, the “CL/F, Mean (SD)” value [4, 6] was 7.75 (1.70) L/h and the “CL/F, Median” value [4, 6] was 7.87 L/h. For the same compound, the “AUC0/24 h, Geometric Mean” value [4, 7] was 11100 ng·h/mL, the “AUC0/24 h, Mean (SD)” value [4, 7] was 11200 (1970) h*ng/ML and the “AUC0/24 h, Median” value [4, 7] was 10900 ng·h/mL. For the same compound, the “CL/F, Geometric Mean” value [4, 7] was 6.12 L/h, the “CL/F, Mean (SD)” value [4, 7] was 6.35 (1.79) L/h and the “CL/F, Median” value [4, 7] was 7.19 L/h. For the same compound, the “AUC%extrap, Median” value [4, 8] was 12.2%, the “AUCinf/D, Median” value [4, 8] was 62.4 ng·h/mL/mg and the “CL/F, Geometric Mean” value [4, 8] was 16.5 L/h. The “CL/F, Mean (SD)” value [4, 8] was 17.7 (7.65) L/h, the “CL/F, Median” value [4, 8] was 16.4 L/h and the “AUC%extrap, Median” value [4, 9] was 6.56%. For the same compound, the “AUCinf/D, Median” value [4, 9] was 168 ng·h/mL/mg, the “CL/F, Median” value [4, 9] was 5.97 L/h and the “λz, Median” value [4, 9] was 0.0222 h⁻¹. The “CL/F, Geometric Mean” value [4, 10] was 2.80 L/h, the “CL/F, Mean (SD)” value [4, 10] was 3.20 (1.62) L/h and the “CL/F, Median” value [4, 10] was 2.74 L/h. For the same compound, the “CL/F, Geometric Mean” value [4, 11] was 15.2 L/h, the “CL/F, Mean (SD)” value [4, 11] was 16.8 (7.60) L/h and the “CL/F, Median” value [4, 11] was 18.3 L/h. The “CL/F, Geometric Mean” value [4, 12] was 2.20 L/h, the “CL/F, Mean (SD)” value [4, 12] was 2.33 (0.715) L/h and the “CL/F, Median” value [4, 12] was 2.50 L/h. The “CL/F, Geometric Mean” value [4, 13] was 3.96 L/h, the “CL/F, Mean (SD)” value [4, 13] was 4.12 (1.43) L/h and the “CL/F, Median” value [4, 13] was 3.60 L/h.
